Data published in patent US9394544B2, “Ameliorating oxidative stress in neurodegenerative disease via Nox1 targeting” (University of Central Florida Research Foundation, Inc., priority 2013, dated 2016).

Tests used:
N27 cells = test: 8-oxo-dG immunostaining (oxidative DNA damage) in N27 cells; assay type: cell-based, rat
Description: To substantiate that nuclear Nox1/Rac1 complex produces superoxide, it was investigated whether selective inhibition of the Nox1/Rac1 complex attenuates ROS production. Adeno-associated virus serotype 2 (AAV2) expression cassettes with either Nox1 shRNA or a T17N dominant negative Rac1 variant were used to knockdown Nox1 or inhibit Rac1, respectively. These vectors separately expressed Green Fluorescent Protein (GFP) as a marker for transduction efficiency. […] The increased levels of active Nox1/Rac1 complex (FIG. 4B) in the nucleus, and increased ROS (FIGS. 5A and 5B) of DA cells in the presence of 6-OHDA, led one to investigate whether oxidative DNA damage occurs in the nucleus. […] As early as 3 days after striatal injection of 6-OHDA, 8-oxo-dG staining was increased in the SN (FIG. 5E). […]
For fluorescent immunostaining, N27 cells in the 4-well chamber slide were incubated for 1 h at 37° C. in 2% normal donkey serum containing either a rabbit polyclonal antibody against Nox1 (1:500), or p-c-jun (1:500). […] Specific binding was detected by incubation for 60 min at room temperature with a 1:200 dilution of secondary antibodies conjugated to AlexaFluor 546 dyes. […] Mounted slices were evaluated for fluorescence under settings for 546 and 488 nm emissions on a confocal microscope.

rat SN = test: Western blot / dot blot / protein carbonyl immunoblot of SN lysates, PQ rat model; assay type: in vivo
Method: The experiments were performed on rats, in accordance with the National Institutes for Health Guide for the Care and Use of Laboratory Animals. All procedures were approved by the local Animal Care and Use Committee. Male Wistar rats (8-10 weeks; Charles River) were maintained in a temperature/humidity-controlled environment under a 12 h light/dark cycle with ad libitum access to food and water. As depicted in FIG. 13A, each animal received four intraperitoneal injections, separated by 1 d, of either vehicle (saline) or PQ (10 mg/kg body weight; b.w.), according to a previously published dose (Manning-Bog et al., 2002; Harraz et al., 2008; Cristovao et al., 2009). All animals were weighed at day 1 and 12. In the studies using the paradigm depicted in FIG. 13A, 4 weeks before starting PQ intraperitoneal injection, animals were stereotaxically injected with various viral constructs at the right SN using the following coordinates: mediolateral, +2.0; anteroposterior, −5.3; dorsoventral, −6.8. Animals were organized into four groups: vector+vehicle: stereotaxically injected with adeno-associated virus (AAV) particles containing a green fluorescent protein (GFP) vector (vector) and then intraperitoneally injected with saline (vehicle) (n=10); vector+PQ: stereotaxically injected with vector and then intraperitoneally injected with PQ (n=10); shNox1+PQ: stereotaxically injected with AAV particles harboring Nox1 shRNA and then intraperitoneally injected with PQ (n=10); shNox1+vehicle: stereotaxically injected with Nox1 shRNA and then intraperitoneally injected with vehicle (n=8). AAV containing GFP vector was used as a negative control. Five days after the last PQ intraperitoneal injection, animals were killed. For Western blot analysis, brains were collected and total protein lysates from SN were prepared. For immunohistochemical analysis, animals were intracardially perfused before collecting the brains.
For Western blot, brain tissues were lysed on ice in radioimmunoprecipitation assay buffer containing 50 mMTris/HCl, pH 8.0, 150 mM NaCl, 2 mM sodium orthovanadate, 1% Nonidet-P40 (NP-40), 0.5% sodium deoxycholate, and 0.1% SDS, containing 1% of a protease inhibitor mixture (AEBSF, pepstatinA, E-64, bestatin, leupeptin, and aprotinin). The soluble fraction was obtained and equal amounts of cell lysate protein were loaded in each lane of a 12% SDS-PAGE or 4/10% to 20% polyacrylamide gel. After electrophoresis and transfer onto a polyvinylidene difluoride (PVDF) membrane, specific protein bands were detected using appropriate primary antibodies (rabbit anti-Nox1, rabbit anti-α-synuclein, mouse anti-Ubiquitin, mouse anti-tyrosine hydroxylase (TH), and mouse anti-β-actin) and secondary antibodies conjugated to alkaline phosphatase or […] peroxidase (anti-rabbit or anti-mouse) followed by Enhanced Chemifluorescence (ECF) detection or Enhanced Chemiluminescence (ECL).
For dot blot, brain tissues were homogenized in a buffer containing 0.32 M sucrose, 1 mM NaHCO3, 1 mM MgCl2, 0.5 mM CaCl2, and 1% of a protease inhibitor mixture (AEBSF, pepstatinA, E-64, bestatin, leupeptin, and aprotinin). The soluble fraction was obtained by centrifugation at 1000×g and 5 μl of each sample, containing the same amount of protein, was spotted in a PVDF membrane. Membrane was air dried for 4 h and blocked overnight at 4° C. in 5% nonfat dry milk TBST (10 mM Tris-HCl, pH 7.8, 100 mM NaCl, 0.05% Tween 20) solution. Protein spots were detected using the primary antibody, rabbit anti-A11 oligomer (0.5 μg/ml) from Invitrogen, and secondary antibody conjugated to […] peroxidase (anti-rabbit) followed by ECL detection.
The levels of protein carbonyl were measured in protein extracts from the SN tissues, using the OxiSelect Protein Carbonyl Immunoblot Kit (Cell Biolabs), according to the manufacturer's instructions, with small modifications. […]

Structure (SMILES)	DNA oxidative damage (8-oxo-dG immunoreactivity in the nucleus) caused by toxin (N27 cells)	increase in protein carbonyl levels after PQ exposure (rat SN; ipsilateral SN)	increase in ubiquitin protein levels, vector+PQ vs vector+vehicle (rat SN; ipsilateral SN)	increase in α-synuclein protein levels, vector+PQ vs vector+vehicle (rat SN; ipsilateral SN, Western blot)	increase in A11-positive oligomers, vector+PQ vs vector+vehicle (rat SN; ipsilateral SN, dot blot)	TH protein levels compared with vector+vehicle (rat SN; ipsilateral SN, vector+PQ group, or Nox1 knocked down before PQ)	Nox1 protein level in the SN, higher than vehicle group (rat SN; rats, PQ 10 mg/kg i.p. x4)	increase in α-synuclein protein levels in the SN (Western blot) (rat SN; rats, PQ 10 mg/kg i.p. x4, vs vehicle)	Nox1 protein, higher than vector+vehicle (rat SN; vector+PQ group, ipsilateral SN)
NCCc1cc(O)c(O)cc1O [6-OHDA, 6-hydroxydopamine]	increased DNA oxidative damage								
C[n+]1ccc(-c2cc[n+](C)cc2)cc1 [PQ, paraquat]		95%	43%	54%	68%	65%	58%	50%	70%
